# Test results taken from patent US20040034037A1, “Heteroaryl compounds useful as inhibitors of GSK-3” (priority 2002, published 2004).
# Molecular target: T1, GSK-3β (AA 1-420) (Homo sapiens, UniProt P49841)
# T1 construct: GSK-3β (AA 1-420)
# Experiment: Ki determination for the inhibition of GSK-3 (standard coupled enzyme system)
# Assay type: biochemical
# Conditions: 20 μM ATP, 300 μM peptide, 30° C.
# Experimental: Reactions were carried out in a solution containing 100 mM HEPES (pH 7.5), 10 mM MgCl2, 25 mM NaCl, 300 μM NADH, 1 mM DTT and 1.5% DMSO. Final substrate concentrations in the assay were 20 μM ATP (Sigma Chemicals, St Louis, Mo.) and 300 μM peptide (HSSPHQS(PO3H2)EDEEE, American Peptide, Sunnyvale, Calif.). Reactions were carried out at 30° C. and 20 nM GSK-30. Final concentrations of the components of the coupled enzyme system were 2.5 mM phosphoenolpyruvate, 300 μM NADH, 30 μg/ml pyruvate kinase and 10 μg/ml lactate dehydrogenase.
# An assay stock buffer solution was prepared containing all of the reagents listed above with the exception of ATP and the test Compound of interest. The assay stock buffer solution (175 μl) was incubated in a 96 well plate with 5 μl of the test compound of interest at final concentrations spanning 0.002 μM to 30 μM at 30° C. for 10 minutes. […] The reaction was initiated by the addition of 20 μl of ATP (final concentration 20 μM). Rates of reaction were obtained using a Molecular Devices Spectramax plate reader (Sunnyvale, Calif.) over 10 minutes at 30° C. The Ki values were determined from the rate data as a function of inhibitor concentration.
# T1 sequence (P49841 whole entry, the tested form may be a part): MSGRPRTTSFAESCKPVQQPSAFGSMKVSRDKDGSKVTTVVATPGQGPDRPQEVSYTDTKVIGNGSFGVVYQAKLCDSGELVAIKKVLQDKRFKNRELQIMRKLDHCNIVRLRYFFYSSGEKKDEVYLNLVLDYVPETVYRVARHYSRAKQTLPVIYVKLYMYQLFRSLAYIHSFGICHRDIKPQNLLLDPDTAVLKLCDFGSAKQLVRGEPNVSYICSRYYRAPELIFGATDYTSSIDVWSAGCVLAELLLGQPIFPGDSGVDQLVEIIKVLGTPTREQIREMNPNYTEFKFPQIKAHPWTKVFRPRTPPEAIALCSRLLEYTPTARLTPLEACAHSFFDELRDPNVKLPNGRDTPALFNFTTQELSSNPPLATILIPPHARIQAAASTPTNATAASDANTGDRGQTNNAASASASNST
row,Ki [µM],Structure (SMILES)
1,< 1,"CC(C)n1c(-c2nonc2N)nc2ccccc21 [Compound I-11, 4-(1-Isopropyl-1H-benzoimidazol-2-yl)-furazan-3-ylamine]"
2,< 1,"CC(C)CCn1c(-c2nonc2N)nc2ccccc21 [Compound I-54, 1-(3-Methyl)butyl-2-[(4-amino)-1,2,5-oxadiazol-3-yl]benzimidazole]"
3,< 1,"CCn1c(-c2nonc2N)nc2ccccc21 [Compound I-55, 4-(1-Ethyl-1H-benzoimidazol-2-yl)-furazan-3-ylamine]"
4,< 1,"CCCn1c(-c2nonc2N)nc2ccccc21 [Compound I-7, 4-(1-Propyl-1H-benzoimidazol-2-yl)-furazan-3-ylamine]"
5,< 1,CC(C)Cn1c(-c2nonc2N)nc2cc(O)ccc21 [Compound I-129]
6,< 1,CC(C#N)n1c(-c2nonc2N)nc2ccccc21 (racemic) [Compound I-51]
7,< 1,"N#CCOc1cccc2c1nc(-c1nonc1N)n2CC#N [Compound I-58, 1-Cyanomethyl-2-[(4-amino)-1,2,5-oxadiazol-3-yl]-4/7-cyanomethoxy benzimidazole]"
8,< 1,"Nc1nonc1-c1nc2ccccc2n1CC(=O)Nc1ccc(F)c(F)c1 [Compound I-19, 2-[2-(4-Amino-furazan-3-yl)-benzoimidazol-1-yl]-N-(3,4-difluoro-phenyl)-acetamide]"
9,< 1,"Nc1nonc1-c1nc2ccccc2n1-c1ccccc1 [Compound I-50, 1-Phenyl-2-[(4-amino)-1,2,5-oxadiazol-3-yl]benzimidazole]"
10,< 1,"N#CCn1c(-c2nonc2N)nc2ccccc21 [Compound I-13, [2-(4-Amino-furazan-3-yl)-benzoimidazol-1-yl]-acetonitrile]"
11,< 1,"COc1ccc2c(c1)nc(-c1nonc1N)n2CC#N [Compound I-47, 1-Cyanomethyl-2-[(4-amino)-1,2,5-oxadiazol-3-yl]-5/6-methoxy benzimidazole]"
12,< 1,"CNc1nccnc1-c1nc2ccccc2n1CC#N [Compound I-90, 3-(1-Cyanomethylbenzimidazol-2-yl)-pyrazin-2-yl methylamine]"
13,< 1,CC(C)Cn1c(-c2nc(Cl)cnc2N)nc2ccccc21 [Compound I-96]
14,< 1,"C=CCn1c(-c2nonc2N)nc2ccccc21 [Compound I-9, 4-(1-Allyl-1H-benzoimidazol-2-yl)-furazan-3-ylamine]"
15,< 1,Nc1cccnc1-c1nc2ccccc2[nH]1 [Compound I-87]
16,< 1,"Nc1nonc1-c1nc2ccccc2n1CC1CC1 [Compound I-32, 1-Cyclopropylmethyl-2-[(4-amino)-1,2,5-oxadiazol-3-yl]benzimidazole]"
17,< 1,"Nc1nonc1-c1nc2ccccc2n1CC(F)(F)F [Compound I-37, 1-(2,2,2-Trifluoro)ethyl-2-[(4-amino)-1,2,5-oxadiazol-3-yl]benzimidazole]"
18,< 1,"N#CCn1c(-c2nonc2N)nc2c([N+](=O)[O-])cccc21 [Compound I-56, 1-Cyanomethyl-2-[(4-amino)-1,2,5-oxadiazol-3-yl]-4-nitro benzimidazole]"
19,< 1,CC(C(N)=O)n1c(-c2nonc2N)nc2ccccc21 (stereo not shown) [Compound I-109]
